Measured values published in US20220281848A1, “PYRAZOLE-SUBSTITUTED PYRROLIDINONES AS HERBICIDES” (FMC Corporation, priority 2019, published 2022).

Tested on: plants
Test: Test D pre-emergence, other plants of Tables D1 and D3
Format: in vivo
Details: preemergent, 20 DAA
Procedure: A formulation containing 50 g/L of the test chemical was prepared by dissolving the active ingredient in a mixture of organic solvents and emulsifier, details of which are provided in the table. This formulation was then mixed with a small, variable amount of acetone to aid dissolution, before addition of a 0.2% v/v aqueous solution of an adjuvant, as the aqueous diluent, to form an aqueous spray solution which contains a predetermined concentration of the active ingredient.
This aqueous spray solution was then sprayed onto plants including maize and wheat that had been seed treated with a herbicide safener, after one day's cultivation (for pre-emergence) or after about 12 days' cultivation (for post-emergence). The plants were grown from seeds sown in standard soil, placed in a glasshouse under controlled conditions (at 24/18° C. or 20/16° C., day/night; 16 h light; 65% humidity). After spray application the plants were then grown in a glasshouse under the same conditions and watered twice daily. After 15 d for post-emergence and 20 DAA for pre-emergence the test was evaluated (100=total damage to plant; 0=no damage to plant).

CN1CC(c2cc(C(F)(F)F)n(C)n2)C(C(=O)Nc2ccccc2F)C1=O (racemic) [Compound 9]
damage to plant (100=total damage to plant; 0=no damage to plant), ABUTH (rate 15): 0 | damage to plant (100=total damage to plant; 0=no damage to plant), ABUTH (rate 30): 0 | damage to plant (100=total damage to plant; 0=no damage to plant), ABUTH (rate 60): 0 | damage to plant (100=total damage to plant; 0=no damage to plant), ABUTH (rate 130): 0 | damage to plant (100=total damage to plant; 0=no damage to plant), ABUTH (rate 250): 10 | damage to plant (100=total damage to plant; 0=no damage to plant), ABUTH (rate 500): 10 | damage to plant (100=total damage to plant; 0=no damage to plant), AMARE (rate 15): 0 | damage to plant (100=total damage to plant; 0=no damage to plant), AMARE (rate 30): 0 | damage to plant (100=total damage to plant; 0=no damage to plant), AMARE (rate 500): 0 | damage to plant (100=total damage to plant; 0=no damage to plant), BIDPI (rate 15): 0 | damage to plant (100=total damage to plant; 0=no damage to plant), BIDPI (rate 30): 0 | damage to plant (100=total damage to plant; 0=no damage to plant), BIDPI (rate 60): 0 | damage to plant (100=total damage to plant; 0=no damage to plant), BIDPI (rate 130): 0 | damage to plant (100=total damage to plant; 0=no damage to plant), BIDPI (rate 250): 0 | damage to plant (100=total damage to plant; 0=no damage to plant), BIDPI (rate 500): 0 | damage to plant (100=total damage to plant; 0=no damage to plant), BRAPL (rate 15): 0 | damage to plant (100=total damage to plant; 0=no damage to plant), BRAPL (rate 30): 10 | damage to plant (100=total damage to plant; 0=no damage to plant), BRAPL (rate 60): 30 | damage to plant (100=total damage to plant; 0=no damage to plant), BRAPL (rate 130): 90 | damage to plant (100=total damage to plant; 0=no damage to plant), BRAPL (rate 250): 100 | damage to plant (100=total damage to plant; 0=no damage to plant), BRAPL (rate 500): 100 | damage to plant (100=total damage to plant; 0=no damage to plant), CYPES (rate 15): 0 | damage to plant (100=total damage to plant; 0=no damage to plant), CYPES (rate 30): 0 | damage to plant (100=total damage to plant; 0=no damage to plant), CYPES (rate 60): 0 | damage to plant (100=total damage to plant; 0=no damage to plant), CYPES (rate 130): 0 | damage to plant (100=total damage to plant; 0=no damage to plant), CYPES (rate 250): 0 | damage to plant (100=total damage to plant; 0=no damage to plant), CYPES (rate 500): 0 | damage to plant (100=total damage to plant; 0=no damage to plant), DIGSA (rate 15): 0 | damage to plant (100=total damage to plant; 0=no damage to plant), DIGSA (rate 30): 80 | damage to plant (100=total damage to plant; 0=no damage to plant), DIGSA (rate 60): 80 | damage to plant (100=total damage to plant; 0=no damage to plant), DIGSA (rate 130): 100 | damage to plant (100=total damage to plant; 0=no damage to plant), DIGSA (rate 250): 90 | damage to plant (100=total damage to plant; 0=no damage to plant), DIGSA (rate 500): 100 | damage to plant (100=total damage to plant; 0=no damage to plant), ECHCG (rate 15): 0 | damage to plant (100=total damage to plant; 0=no damage to plant), ECHCG (rate 30): 20 | damage to plant (100=total damage to plant; 0=no damage to plant), ECHCG (rate 60): 80 | damage to plant (100=total damage to plant; 0=no damage to plant), ECHCG (rate 130): 90 | damage to plant (100=total damage to plant; 0=no damage to plant), ECHCG (rate 250): 90 | damage to plant (100=total damage to plant; 0=no damage to plant), ECHCG (rate 500): 90 | damage to plant (100=total damage to plant; 0=no damage to plant), ELEIN (rate 15): 0 | damage to plant (100=total damage to plant; 0=no damage to plant), ELEIN (rate 30): 0 | damage to plant (100=total damage to plant; 0=no damage to plant), ELEIN (rate 60): 0 | damage to plant (100=total damage to plant; 0=no damage to plant), ELEIN (rate 130): 0 | damage to plant (100=total damage to plant; 0=no damage to plant), ELEIN (rate 250): 0 | damage to plant (100=total damage to plant; 0=no damage to plant), ELEIN (rate 500): 0 | damage to plant (100=total damage to plant; 0=no damage to plant), EPHHL (rate 15): 0 | damage to plant (100=total damage to plant; 0=no damage to plant), EPHHL (rate 30): 0 | damage to plant (100=total damage to plant; 0=no damage to plant), EPHHL (rate 60): 0 | damage to plant (100=total damage to plant; 0=no damage to plant), EPHHL (rate 130): 0 | damage to plant (100=total damage to plant; 0=no damage to plant), EPHHL (rate 500): 10 | damage to plant (100=total damage to plant; 0=no damage to plant), GLXMA (rate 15): 0 | damage to plant (100=total damage to plant; 0=no damage to plant), GLXMA (rate 30): 0 | damage to plant (100=total damage to plant; 0=no damage to plant), GLXMA (rate 60): 0 | damage to plant (100=total damage to plant; 0=no damage to plant), GLXMA (rate 130): 0 | damage to plant (100=total damage to plant; 0=no damage to plant), GLXMA (rate 250): 0 | damage to plant (100=total damage to plant; 0=no damage to plant), GLXMA (rate 500): 0 | damage to plant (100=total damage to plant; 0=no damage to plant), IPOHE (rate 15): 0 | damage to plant (100=total damage to plant; 0=no damage to plant), IPOHE (rate 30): 0 | damage to plant (100=total damage to plant; 0=no damage to plant), IPOHE (rate 60): 0 | damage to plant (100=total damage to plant; 0=no damage to plant), IPOHE (rate 130): 0 | damage to plant (100=total damage to plant; 0=no damage to plant), IPOHE (rate 250): 0 | damage to plant (100=total damage to plant; 0=no damage to plant), IPOHE (rate 500): 0 | damage to plant (100=total damage to plant; 0=no damage to plant), ORYSA (rate 15): 0 | damage to plant (100=total damage to plant; 0=no damage to plant), ORYSA (rate 30): 0 | damage to plant (100=total damage to plant; 0=no damage to plant), ORYSA (rate 60): 0 | damage to plant (100=total damage to plant; 0=no damage to plant), ORYSA (rate 130): 0 | damage to plant (100=total damage to plant; 0=no damage to plant), ORYSA (rate 250): 0 | damage to plant (100=total damage to plant; 0=no damage to plant), ORYSA (rate 500): 0 | damage to plant (100=total damage to plant; 0=no damage to plant), PANMI (rate 15): 0 | damage to plant (100=total damage to plant; 0=no damage to plant), PANMI (rate 30): 0 | damage to plant (100=total damage to plant; 0=no damage to plant), PANMI (rate 60): 0 | damage to plant (100=total damage to plant; 0=no damage to plant), PANMI (rate 130): 0 | damage to plant (100=total damage to plant; 0=no damage to plant), PANMI (rate 250): 0 | damage to plant (100=total damage to plant; 0=no damage to plant), PANMI (rate 500): 0 | damage to plant (100=total damage to plant; 0=no damage to plant), SETFA (rate 15): 0 | damage to plant (100=total damage to plant; 0=no damage to plant), SETFA (rate 30): 0 | damage to plant (100=total damage to plant; 0=no damage to plant), SETFA (rate 60): 0 | damage to plant (100=total damage to plant; 0=no damage to plant), SETFA (rate 130): 50 | damage to plant (100=total damage to plant; 0=no damage to plant), SETFA (rate 250): 70 | damage to plant (100=total damage to plant; 0=no damage to plant), SETFA (rate 500): 90 | damage to plant (100=total damage to plant; 0=no damage to plant), SIDSP (rate 15): 0 | damage to plant (100=total damage to plant; 0=no damage to plant), SIDSP (rate 30): 0 | damage to plant (100=total damage to plant; 0=no damage to plant), SIDSP (rate 60): 0 | damage to plant (100=total damage to plant; 0=no damage to plant), SIDSP (rate 130): 0 | damage to plant (100=total damage to plant; 0=no damage to plant), SIDSP (rate 250): 0 | damage to plant (100=total damage to plant; 0=no damage to plant), SIDSP (rate 500): 0 | damage to plant (100=total damage to plant; 0=no damage to plant), SORVU (rate 15): 0 | damage to plant (100=total damage to plant; 0=no damage to plant), SORVU (rate 30): 0 | damage to plant (100=total damage to plant; 0=no damage to plant), SORVU (rate 60): 0 | damage to plant (100=total damage to plant; 0=no damage to plant), SORVU (rate 130): 0 | damage to plant (100=total damage to plant; 0=no damage to plant), SORVU (rate 250): 0
